Data reported in publication PMC10031046, “Competition between FLS and DFR regulates the distribution of flavonols and proanthocyanidins in Rubus chingii Hu” (Frontiers in Plant Science, 2023).

Key:
RcDFR = system: T1, RcDFR; experiment: anthocyanidin formation after butanol-HCl, A530, Michaelis-Menten fit; format: biochemical, Rubus chingii; conditions: 1 mM NADPH, 0.1 M PBS pH 7.0, 30 °C, 1 h; kcat unit is 10^-3 s^-1
T1 construct: gene DFR; N-terminal MBP fusion (pMAL-c2X), E. coli BL21(DE3), amylose resin
Text: anthocyanidin formation after butanol-HCl, A530, Michaelis-Menten fit on RcDFR

RcFLS1 = system: T2, RcFLS1; experiment: HPLC product assay, Michaelis-Menten fit; format: biochemical, Rubus chingii; conditions: 100 mM Tris-HCl pH 7.5, 10 mM ascorbate, 10 μM FeSO4, 10 mM 2-oxoglutarate, catalase, 30 °C; kcat unit is 10^-3 s^-1
T2 construct: gene FLS1; N-terminal MBP fusion (pMAL-c2X), E. coli BL21(DE3), amylose resin
Text: HPLC product assay, Michaelis-Menten fit on RcFLS1

| Structure (SMILES) | Km (RcDFR) | Km (RcFLS1) |
| --- | --- | --- |
| O=C1c2c(O)cc(O)cc2O[C@H](c2ccc(O)cc2)[C@H]1O [DHK, Dihydrokaempferol] | 47.2 ± 5.79 µM | 33.9 ± 8.66 µM |
| O=C1c2c(O)cc(O)cc2O[C@H](c2ccc(O)c(O)c2)[C@H]1O [DHQ, Dihydroquercetin] | 125 ± 11.4 µM | 56.9 ± 16.4 µM |
| O=C1C[C@@H](c2ccc(O)c(O)c2)Oc2cc(O)cc(O)c21 [E, Eriodictyol] |  | 34.5 ± 9.34 µM |
| O=C1C[C@@H](c2ccc(O)cc2)Oc2cc(O)cc(O)c21 [N, Naringenin] |  | 43.6 ± 14.6 µM |
